We go through 24 compounds from patent US12583820B2, “Broad spectrum antivirals against coronavirus” (priority 2020, dated 2026).

A word on the EC50: it is the concentration that produces a half-maximal response. A word on the IC50: it is the midpoint of a concentration-inhibition curve.

Read-outs that look alike come from different tables or passages of the source.

Data set [1] concerns NV in the replicon harboring cells (HG23 cells). Description: microbe, parasite or virus in culture. In kind it is cell-based, norovirus (NV).
Another data set concerns the target NV 3CLpro (Norovirus, UniProt Q83883). Description: biochemical. The format is biochemical.
For a further data set, the target named is 3CLpro of MERS-CoV (Middle East respiratory syndrome-related coronavirus, UniProt K9N7C7). The data set is described as follows: biochemical. The format is biochemical.
Chain of 3CLpro of MERS-CoV (K9N7C7 3248-3553 limits assumed): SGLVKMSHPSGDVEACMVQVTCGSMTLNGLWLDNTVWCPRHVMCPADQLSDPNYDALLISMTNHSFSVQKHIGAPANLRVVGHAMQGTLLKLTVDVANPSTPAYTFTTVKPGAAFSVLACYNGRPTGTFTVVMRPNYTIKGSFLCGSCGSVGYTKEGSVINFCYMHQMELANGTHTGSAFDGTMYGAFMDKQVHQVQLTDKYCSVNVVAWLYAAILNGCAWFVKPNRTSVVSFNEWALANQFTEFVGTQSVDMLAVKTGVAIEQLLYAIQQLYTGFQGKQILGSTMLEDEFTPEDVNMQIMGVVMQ
A further data set has as its system MERS-CoV. Description: microbe, parasite or virus in culture. The format is cell-based.
The target in another data set is T1, 3CLpro of SARS-CoV-2 (Severe acute respiratory syndrome coronavirus 2, UniProt P0DTD1).
T1 construct: The codon-optimized cDNA of full length of 3CLpro of SARS-CoV-2; 6xHis (N); made in house; pET-28a(+) vector (points to E. coli, my inference)
The data set is described as follows: biochemical. In kind it is biochemical.

In a further data set the test system is SARS-CoV-2. The data set is described as follows: microbe, parasite or virus in culture. The format is cell-based.
A further data set in a line: in vitro. The following applies: human.
Another data set relates to FIPV. Description: microbe, parasite or virus in culture. In kind it is cell-based. As to conditions: Alphacoronavirus 1, CRFK, read-out: EC50 in cell culture (μM) FIPV.
A further data set deals with 3CLpro of SARS-CoV (Severe acute respiratory syndrome coronavirus, UniProt P0C6X7). In kind it is biochemical. As to conditions: read-out: IC50 in enzyme assay (μM) SARS-CoV.
The nature of data set [2]: Nonspecific cytotoxic effects (CC50), CytoTox 96 kit. The following applies: Huh-7, CRFK or CCL1 cells (confluent, 96-well plates).
The subject of another data set is MHV-1. The data set is described as follows: microbe, parasite or virus in culture. In kind it is cell-based, mouse hepatitis virus (MHV). As to conditions: Murine coronavirus, read-out: EC50 in cell culture (μM) MHV.
Data set [3] relates to Huh-7, CRFK or CCL1 cells. Description: Nonspecific cytotoxic effects (CC50), CytoTox 96 kit. The following applies: Huh-7, CRFK, or CCL1 cells, Table 7.
[4] abbreviates: read-out: MERS-CoV IC50 (uM) enzyme.
[5] abbreviates: read-out: MERS-CoV IC50(μM) Enzyme.
Setting [6] is: Norovirus, HG23, read-out: EC50 (μM) ± SD.
The mark [7] stands for this setting: read-out: IC50 in enzyme assay (μM) MERS-CoV.
[8] abbreviates: Middle East respiratory syndrome-related coronavirus, Huh-7, read-out: EC50 in cell culture (μM) MERS-CoV.

Chain of NV 3CLpro (Q83883 1101-1281): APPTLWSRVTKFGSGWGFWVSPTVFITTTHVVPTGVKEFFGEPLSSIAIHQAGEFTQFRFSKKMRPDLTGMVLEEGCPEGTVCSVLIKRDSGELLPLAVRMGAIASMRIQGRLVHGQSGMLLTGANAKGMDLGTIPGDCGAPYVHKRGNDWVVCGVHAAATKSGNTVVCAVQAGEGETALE

As to `CC(C)(OC(=O)N[C@@H](CC1CCCCC1)C(=O)N[C@H](C=O)C[C@@H]1CCNC1=O)c1cccc(Cl)c1` [Compound 5a (Scheme 2)], in data set [1] (read-out: EC50 (μM) ± SD), the EC50 worked out at 3.7 ± 2.3 µM. In the data set on HG23 cells, this compound returned a CC50 greater than 100 µM. Further, the half-inhibitory concentration (IC50) is 2.9 ± 0.9 µM at NV 3CLpro (read-out: IC50 (μM) ± SD) and 11.5 µM at 3CLpro of MERS-CoV (setting [4]).
For `CC(C)(COC(=O)N[C@@H](CC1CCCCC1)C(=O)N[C@H](C=O)C[C@@H]1CCNC1=O)c1cccc(Cl)c1` [Compound 5d (Scheme 2)], the EC50 in [1] (read-out: EC50 (μM) ± SD) stood at 0.07 ± 0.01 µM. The CC50 in the data set on HG23 cells worked out at 13.3 ± 1.27 µM. Also, the IC50 at NV 3CLpro (read-out: IC50 (μM) ± SD) was 0.23 ± 0.04 µM; on 3CLpro of MERS-CoV (setting [5]), 1.9 µM.
`CC(C)C[C@H](NC(=O)OCC(C)(C)c1ccccc1)C(=O)N[C@H](C=O)C[C@@H]1CCNC1=O` [Compound 5f (Scheme 2)]: the EC50 in data set [1] (read-out: EC50 (μM) ± SD) was found to be 0.65 ± 0.07 µM. This compound also had a CC50 in the data set with HG23 cells greater than 100 µM. Further, the IC50 at NV 3CLpro (read-out: IC50 (μM) ± SD) was determined as 0.45 ± 0.07 µM; at 3CLpro of MERS-CoV (setting [5]) it was 0.8 µM.
Take `CC(C)C[C@H](NC(=O)OCC(C)(C)c1cccc(Cl)c1)C(=O)N[C@H](C=O)C[C@@H]1CCNC1=O` [Compound 5g (Scheme 2)]: the EC50 is 0.17 ± 0.05 µM in data set [1] (read-out: EC50 (μM) ± SD), 0.05 µM in the data set with MERS-CoV (read-out: MERS-CoV EC50 (μM) Cell culture) and 0.18 µM in the data set with SARS-CoV-2 (read-out: SARS-CoV-2 EC50 (μM) Cell culture). Further, the CC50 with HG23 cells is greater than 100 µM. Also, the values for the IC50 at 3CLpro of SARS-CoV-2 (read-out: SARS-CoV-2 IC50 (μM) enzyme), on NV 3CLpro (read-out: IC50 (μM) ± SD) and at 3CLpro of MERS-CoV (setting [5]) were 0.3 µM, 0.27 ± 0.04 µM and 0.08 µM, respectively.
Consider `CC(C)(Cc1cccc(Cl)c1)OC(=O)N[C@@H](CC1CCCCC1)C(=O)N[C@H](C=O)C[C@@H]1CCNC1=O` [Compound 5h (Scheme 2)], for which, in [1] (read-out: EC50 (μM) ± SD), the EC50 is 5.4 ± 1.1 µM. The CC50 in the data set on HG23 cells is 15.6 ± 1.8 µM. Also, the values for the IC50 at NV 3CLpro (read-out: IC50 (μM) ± SD) and on 3CLpro of MERS-CoV (setting [4]) were 7.7 ± 1.7 µM and greater than 10 µM, respectively.
The matching figures for `CC(C)C[C@H](NC(=O)OC(C)(C)Cc1cccc(Cl)c1)C(=O)N[C@H](C=O)C[C@@H]1CCNC1=O` [Compound 5i (Scheme 2)]: 0.9 ± 0.21 µM, greater than 100 µM, 1.2 ± 0.5 µM and 1.1 µM.
Consider `O=C[C@H](C[C@@H]1CCNC1=O)NC(=O)[C@H](CC1CCCCC1)NC(=O)OC1(c2cccc(Cl)c2)CC1` [Compound 5q], for which, in data set [1] (setting [6]), the EC50 was 0.25 ± 0.07 µM. Further, it took 0.28 ± 0.06 µM to reach half-maximal inhibition against NV 3CLpro (IC50). For the same compound, the CC50 in “in vitro” was 36.5 ± 7.1 µM.
The matching figures for `CC(C)C[C@H](NC(=O)OC1(c2cccc(Cl)c2)CC1)C(=O)N[C@H](C=O)C[C@@H]1CCNC1=O` [Compound 5r]: 0.65 ± 0.2 µM, 0.28 ± 0.03 µM and greater than 100 µM.
The matching figures for `O=C[C@H](C[C@@H]1CCNC1=O)NC(=O)[C@H](CC1CCCCC1)NC(=O)OC/C=C/c1cccc(Cl)c1` [Compound 5s]: 0.06 ± 0.01 µM, 0.14 ± 0.01 µM and 24.1 ± 0.6 µM.
The matching figures for `CC(C)C[C@H](NC(=O)OC/C=C/c1cccc(Cl)c1)C(=O)N[C@H](C=O)C[C@@H]1CCNC1=O` [Compound 5t]: 0.08 ± 0.01 µM, 0.15 ± 0.05 µM and greater than 100 µM.
In the case of `CCCCC1CCC(OC(=O)N[C@@H](CC(C)C)C(=O)N[C@H](C=O)C[C@@H]2CCNC2=O)CC1` (stereo partly drawn) [Compound 6e (Scheme 1), 4-butylcyclohexyl ((S)-4-methyl-1-oxo-1-(((S)-1-oxo-3-((S)-2-oxopyrrolidin-3-yl)propan-2-yl)amino)pentan-2-yl)carbamate], the EC50 in the data set with FIPV is 0.22 µM; in the data set on SARS-CoV-2 (Severe acute respiratory syndrome coronavirus 2, Vero C1008, read-out: EC50 in cell culture (μM) SARS-CoV-2) it was 0.1 µM; in the data set with MHV-1, 0.12 µM. Moreover, the IC50 against 3CLpro of SARS-CoV-2 turned out to be 0.8 µM; at 3CLpro of SARS-CoV, 0.9 µM; at 3CLpro of MERS-CoV (setting [7]) it was 0.15 µM. The compound also yielded a CC50 at 72 h in data set [2] greater than 100 µM.
For the compound `CC(C)C[C@H](NC(=O)OCCCc1cccc(Cl)c1)C(=O)N[C@@H](C[C@@H]1CCNC1=O)C(O)S(=O)(=O)O` (stereo partly shown) [Compound 6n], in data set [1] (read-out: EC50 (μM) ± SD), the EC50 was 0.09 ± 0.01 µM. This compound also displayed a CC50 in the data set with HG23 cells greater than 100 µM. In addition, the IC50 at NV 3CLpro (read-out: IC50 (μM) ± SD) is 0.19 ± 0.06 µM.
On to `CC(C)C[C@H](NC(=O)OCC(C)(C)Cc1cccc(Cl)c1)C(=O)N[C@@H](C[C@@H]1CCNC1=O)C(O)S(=O)(=O)O` (stereo partly shown) [Compound 6o], for which the EC50 in [1] (read-out: EC50 (μM) ± SD) is 0.15 ± 0.08 µM. The compound also came in with a CC50 with HG23 cells greater than 100 µM. In addition, the IC50 at NV 3CLpro (read-out: IC50 (μM) ± SD) came out at 0.16 ± 0.03 µM.
With `O=C(N[C@@H](CC1CCCCC1)C(=O)N[C@@H](C[C@@H]1CCNC1=O)C(O)S(=O)(=O)O)OC1(c2cccc(Cl)c2)CC1` (stereo partly shown) [Compound 6q], the EC50 in [1] (read-out: EC50 (μM) ± SD) was 0.18 ± 0.04 µM. Moreover, the CC50 with HG23 cells worked out at 42.3 ± 15.6 µM. The IC50 on NV 3CLpro (read-out: IC50 (μM) ± SD) was 0.27 ± 0.04 µM.
The matching figures for `CC(C)C[C@H](NC(=O)OC1(c2cccc(Cl)c2)CC1)C(=O)N[C@@H](C[C@@H]1CCNC1=O)C(O)S(=O)(=O)O` (stereo partly shown) [Compound 6r]: 0.55 ± 0.08 µM, greater than 100 µM and 0.25 ± 0.08 µM.
Regarding `O=C(N[C@@H](CC1CCCCC1)C(=O)N[C@@H](C[C@@H]1CCNC1=O)C(O)S(=O)(=O)O)OC/C=C/c1cccc(Cl)c1` (stereo partly shown) [Compound 6s], in data set [1] (read-out: EC50 (μM) ± SD), the EC50 is 0.07 ± 0.02 µM. Moreover, in the data set with HG23 cells, the CC50 is 28.3 ± 2.8 µM. Further, the IC50 at NV 3CLpro (read-out: IC50 (μM) ± SD) was determined as 0.16 ± 0.01 µM.
The matching figures for `CC(C)C[C@H](NC(=O)OC/C=C/c1cccc(Cl)c1)C(=O)N[C@@H](C[C@@H]1CCNC1=O)C(O)S(=O)(=O)O` (stereo partly shown) [Compound 6t]: 0.08 ± 0.02 µM, greater than 100 µM and 0.11 ± 0.02 µM.
For `CC(C)C[C@H](NC(=O)OC1CCCCC1)C(=O)N[C@@H](C[C@@H]1CCNC1=O)C(O)S(=O)(=O)[O-].[Na+]` (stereo partly drawn) [Compound 7a (Scheme 1), sodium (2S)-2-((S)-2-(((cyclohexyloxy)carbonyl)amino)-4-methylpentanamido)-1-hydroxy-3-((S)-2-oxopyrrolidin-3-yl)propane-1-sulfonate], in the data set with MERS-CoV, the “EC50 values against MERS-CoV in cell culture (in words)” value was “submicromolar”. Further, the EC50 was 0.08 µM with MERS-CoV (setting [8]), 0.07 µM in the data set on FIPV and 0.08 µM with MHV-1. Further, the IC50 was 3.5 µM at 3CLpro of SARS-CoV-2, 3.8 µM on 3CLpro of SARS-CoV and 0.15 µM on 3CLpro of MERS-CoV (setting [7]). In data set [2], this compound showed a CC50 at 72 h greater than 100 µM.
As for `CC(C)C[C@H](NC(=O)OC1CCC(F)(F)CC1)C(=O)N[C@@H](C[C@@H]1CCNC1=O)C(O)S(=O)(=O)[O-].[Na+]` (stereo partly drawn) [Compound 7h (Scheme 1), sodium (2S)-2-((S)-2-((((4,4-difluorocyclohexyl)oxy)carbonyl)amino)-4-methylpentan-amido)-1-hydroxy-3-((S)-2-oxopyrrolidin-3-yl)propane-1-sulfonate], the “EC50 values against MERS-CoV in cell culture (in words)” value in the data set on MERS-CoV was “submicromolar”. Further, the EC50 was 0.21 µM in the data set on MERS-CoV (setting [8]), 0.12 µM with FIPV and 0.11 µM in the data set on MHV-1. In addition, the IC50 was 2.2 µM on 3CLpro of SARS-CoV and 0.08 µM on 3CLpro of MERS-CoV (setting [7]). In data set [2], this compound returned a CC50 at 72 h greater than 100 µM.
Consider `CC(C)C[C@H](NC(=O)OCC1CCC(F)(F)CC1)C(=O)N[C@@H](C[C@@H]1CCNC1=O)C(O)S(=O)(=O)O` (stereo partly drawn) [Compound 7j (Scheme 1), sodium (2S)-2-((S)-2-((((4,4-difluorocyclohexyl)methoxy)carbonyl)amino)-4-methylpentan-amido)-1-hydroxy-3-((S)-2-oxopyrrolidin-3-yl)propane-1-sulfonate], for which the EC50 in the data set on FIPV was determined as 0.07 µM; in the data set on MHV-1, 0.16 µM. The concentration for half-maximal inhibition (IC50) amounted to 1.1 µM on 3CLpro of SARS-CoV and 0.1 µM on 3CLpro of MERS-CoV (setting [7]). The CC50 at 72 h in data set [2] was greater than 100 µM.
As for “((1s,4S)-4-Propylcyclohexyl) methyl-d2 ((2S)-4-methyl-1-oxo-1-(((2S)-1-oxo-3-(2-oxopyrrolidin-3-yl) propan-2-yl) amino) pentan-2-yl) carbamate [Compound 9b]”, the CC50 in data set [3] was greater than 100 µM.
On the same count and under the same terms, the figure for “Sodium (2S)-1-hydroxy-2-((S)-4-methyl-2-(((((1s,4S)-4-propylcyclohexyl) methoxy-d2) carbonyl) amino) pentanamido)-3-(2-oxopyrrolidin-3-yl) propane-1-sulfonate [Compound 9c]” is greater than 100 µM; for “Sodium (2S)-1-hydroxy-2-((S)-4-methyl-2-(((((1s,4S)-4-propylcyclohexyl)oxy)carbonyl) amino)pentanamido)-3-((S)-2-oxopyrrolidin-3-yl)propane-1-sulfonate [Compound 3c]” it is greater than 100 µM; for “Sodium (2S)-2-((S)-2-((((4,4-difluorocyclohexyl) methoxy-d2) carbonyl) amino)-4-methylpentanamido)-1-hydroxy-3-(2-oxopyrrolidin-3-yl) propane-1-sulfonate [Compound 11c]” it is greater than 100 µM.
